“Also recorded” adds a separate entry of the source.
How the values were obtained:
[1] = tested on: carrageenan-induced rat paw edema; test: Inflammatory pain in rats induced by carrageenan intraplantar injection (paw edema); format: in vivo, Male Wistar rats; settings: oral capsules 1 h before 1% carrageenan; KL Co-xx 47.1 mg/kg, Gabapentin 20.4 mg/kg, admixture 47.1+20.4 mg/kg; FIGS. 4 and 5
Description: Rat chow and tap water were available ad libitum. […] Animal care was in compliance with Italian Legislative Decree (D.L. 116/92) and European Commission Directive (O.J. of E.C. L358/1, 18/12/86) regulations on the protection of laboratory animals. All efforts were made to minimize animal suffering and the number of animals used.
Edema was expressed as the mean increase in paw volume (ml) relative to control animals.

osteoarthritis = settings: prolonged administration; cited from earlier work
[2] = cited from earlier work
[3] = in vivo; cited from earlier work
[4] = Plasma and brain levels of Gabapentin after oral administration as capsules; settings: male, Sprague-Dawley, rat, in vivo, 2 capsules

In the case of `NCC1(CC(=O)O)CCCCC1` [Gabapentin], the “anti-inflammatory effect on carrageenan-evoked edema (paw volume, % inhibition)” value [1] is given as “less effective; also recorded: little active on inflammatory pain”, the “start of therapeutic effect in osteoarthritis (duration of administration)” value (osteoarthritis) is given as 3 months and the “time of utmost level in plasma” value ([2]; after oral administration) is given as 3 to 4 h. For the same molecule, the “binding to plasma proteins” value ([2]; in vivo) was “does not attach to plasma proteins”, the hepatic metabolism ([2]; in vivo) was “neither inhibited nor metabolized by hepatic enzymes” and the excretion half-life ([2]; renal excretion) was “roughly 6 hours”. For the same molecule, the “side effect: ataxia” value [3] was 13%, the “side effect: dizziness” value [3] was 18% and the “side effect: fatigue” value [3] was 11%. For the same molecule, the “side effect: somnolence” value [3] was 20% and the Kp at 2 h [4] was 0.378.

— patent US12667549B2 (DOMPÉ FARMACEUTICI S.P.A., priority 2020, dated 2026)
